In patent publication US20220016200A1, “PHARMACEUTICAL COMPOSITION FOR THE TREATMENT OF CYSTIC FIBROSIS” (GALENUS G.H. AG, priority 2018, published 2022):
Read-outs that look alike come from different tables or passages of the source. Bridge positions count the residues as written; N and C are the ends. Square brackets hold non-standard residues; d marks the D form. Peptide text beside a SMILES is read from it. * marks the point of attachment. Heptanoyl(5-Me) = CCC(C)CCCC(=O)*; Dab = NCC[C@H](N)C(=O)O

How the values were obtained:
A. nosocomialis 1461911 = assay: Checkerboard fusidic acid (FD) and colistin sulfate (CS), MIC/FIC and MBC/FBC; assay type: cell-based, Acinetobacter nosocomialis
Description: Checkerboard assays between fusidic acid (FD) and colistin sulfate (CS) with a bacterial load 5(1-10)*10^5 CFU/ml in cationic adapted Mueller Hinton broth (CAMHB). • a. Antimicrobial stock solutions were prepared using sterile distilled water; • b. CS was added along the ordinate; FD was added along the abscissa to 96 well, flat bottom, polystyrene panels with no treatment. Colistin alone was tested in triplicates; • c. Serial 2-fold dilutions starting with 640 […] CS and 640 μg/ml FD were made; 15 μl volume of the serial dilutions were added for each agent to the appropriate wells—final volume at 30 μl; • d. For each agent tested alone an additional 15 μl media was added to the well. 30 μl were added in control wells where none of the agent was tested. The negative control well contains 150 μl media without any additions; • e. From an overnight bacterial culture in tryptic soy broth, 100 μL was added to 10 mL of fresh tryptic soy broth. This was then incubated at 37° C. for 1.5 hour at 180 rpm; • f. Bacteria in 120 μl CAMHB were added to each well (end concentration 5(1-10)*10^5 CFU/ml); • g. Plates were incubated at 37° C. in an ambient air incubator for 24 h • h. Turbidity at OD600 is determined with a plate photometer • i. By using a one-time inoculator 3 μl from each well of the 96-well plate were transferred to three blood agar plates. The plates were incubated over night at 37° C. in an ambient air incubator; • j. MIC values are defined as lowest concentration which restricts bacterial growth to OD600≤0.1; • k. MBC values were determined by visual reading the lowest concentration which inhibits 99.9% of the growth of bacteria in the wells; • l. Determination of the fractional inhibitory concentration (FIC) index and fractional bactericidal concentration (FBC) index and characterization of antimicrobial interactions was assessed;
FIC calculation was carried out as: (MIC of drug A, tested in combination)/(MIC of drug A, tested alone)+(MIC of drug B, tested in combination)/(MIC of drug B, tested alone). FBC calculation was carried out just as well;
(§1) Interactive categories were calculated from checkerboard analysis using MIC results from testing each agent alone and MIC results from the combination wells adjacent to the wells with growth in them.
Determination of the fractional inhibitory concentration (FIC) index and fractional bactericidal concentration (FBC) index and characterization of antimicrobial interactions was assessed:
(ii) Indifference; FIC/FBC>0.5 to <4.0
(iii) Antagonism; FIC/FBC≥4.0
b. Acinetobacter nosocomialis 1461911 (IHMA), colistin resistant (3xCS 4/8)

S. maltophilia 1221783 = assay: Checkerboard fusidic acid (FD) and colistin sulfate (CS), MIC/FIC; assay type: cell-based, Stenotrophomonas maltophilia; conditions: agent alone, CAMHB, 1*10^6 CFU/ml, 24 h
Description: Checkerboard assays between fusidic acid (FD) and colistin sulfate (CS) with a bacterial load 5(1-10)*10^5 CFU/ml in cationic adapted Mueller Hinton broth (CAMHB). • a. Antimicrobial stock solutions were prepared using sterile distilled water; • b. CS was added along the ordinate; FD was added along the abscissa to 96 well, flat bottom, polystyrene panels with no treatment. Colistin alone was tested in triplicates; • c. Serial 2-fold dilutions starting with 640 […] CS and 640 μg/ml FD were made; 15 μl volume of the serial dilutions were added for each agent to the appropriate wells—final volume at 30 μl; • d. For each agent tested alone an additional 15 μl media was added to the well. 30 μl were added in control wells where none of the agent was tested. […] Turbidity at OD600 is determined with a plate photometer • i. […] Determination of the fractional inhibitory concentration (FIC) index and fractional bactericidal concentration (FBC) index and characterization of antimicrobial interactions was assessed; […]
as §1
Determination of the fractional inhibitory concentration (FIC) index and fractional bactericidal concentration (FBC) index and characterization of antimicrobial interactions was assessed: […]

`CCC(C)CCCC(=O)N[C@@H](CCN)C(=O)N[C@H](C(=O)N[C@@H](CCN)C(=O)N[C@H]1CCNC(=O)[C@H]([C@@H](C)O)NC(=O)[C@H](CCN)NC(=O)[C@H](CCN)NC(=O)[C@H](CC(C)C)NC(=O)[C@@H](CC(C)C)NC(=O)[C@H](CCN)NC1=O)[C@@H](C)O` (stereo partly drawn) [CS, colistin sulphate] ({Heptanoyl(5-Me)}-[Dab]T[Dab][Dab][Dab][dL]L[Dab][Dab]T; lactam 4-C) gave an MIC (A. nosocomialis 1461911; A. nosocomialis 1461911, agent alone, CAMHB, 1*10^6 CFU/ml, 24 h) of 4 mg/1l, an MBC (A. nosocomialis 1461911; Acinetobacter nosocomialis, A. nosocomialis 1461911, agent alone, CAMHB, 1*10^6 CFU/ml) of 8 µg/mL and an MIC (A. nosocomialis 1461911; organism list of Example 3, Acinetobacter nosocomialis 1461911, 3x, read-out: Colistin CS MIC) of 4 µg/mL. The MIC (S. maltophilia 1221783) was 0.5 mg/1l.
